Target: T1, Diphosphomevalonate decarboxylase (Streptococcus pneumoniae serotype 2 (strain D39 / NCTC 7466), UniProt A0A0H2ZN59)
T1 sequence (A0A0H2ZN59 whole entry): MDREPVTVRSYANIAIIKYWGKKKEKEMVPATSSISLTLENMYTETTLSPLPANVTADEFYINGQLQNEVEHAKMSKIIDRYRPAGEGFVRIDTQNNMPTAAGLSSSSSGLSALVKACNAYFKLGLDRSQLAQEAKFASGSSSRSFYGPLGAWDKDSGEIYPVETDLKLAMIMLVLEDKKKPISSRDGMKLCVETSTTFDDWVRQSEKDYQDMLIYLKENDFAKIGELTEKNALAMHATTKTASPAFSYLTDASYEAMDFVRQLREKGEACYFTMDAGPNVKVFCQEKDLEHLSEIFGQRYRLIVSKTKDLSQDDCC
Assay: S. pneumoniae DPM-DC inhibitor potency, dose response, biochemical, PK/LDH-coupled NADH fluorescence, hexokinase coupling counter-screen (AID 550)
Conditions: not given

Going from `Cc1cc(=O)[nH]c2ccccc12` to `CCOC(=O)c1cc2c(cn1)[nH]c1ccccc12`, the IC50 falls from > 10000 µM to 49.4 µM.

First: O=C(Nc1ccc2nc(-c3ccco3)c(-c3ccco3)nc2c1)N1CCCCCC1
Second: Cc1nc2cc(NC(=O)NCc3ccco3)ccc2n1C [1-(1,2-dimethyl-5-benzimidazolyl)-3-(2-furanylmethyl)urea]
The IC50 of the first is lower: 46.5 µM for the first, > 10000 µM for the second. The first is the more potent here.

Compared with `CCc1cc2c(=O)c(-c3nc4ccccc4n3C)c(C)oc2c(CN2CCN(C)CC2)c1O`, `CN1CCN(CCNC(=O)c2cc3c(=O)n(C)c4ccccc4c3n2C)CC1` [1,5-dimethyl-N-[2-(4-methyl-1-piperazinyl)ethyl]-4-oxo-2-pyrrolo[3,2-c]quinolinecarboxamide] is 15-fold higher in IC50: 49.5 µM for the first, 751 µM for the second. The first is the more potent here.

`CN(C)CCSc1nnc(-c2ccccc2)o1` and `CCN(CC)c1nc2ccccc2n2cnnc12` cannot be ordered by IC50: > 10000 µM for the first, > 10000 µM for the second.

`COc1ccc2[nH]c(=O)c(CN(CC3CCCO3)C(=O)Nc3ccccc3)cc2c1` (configuration not stated) and `CCC(=O)N(Cc1cc2cc(OC)ccc2[nH]c1=O)c1cc(C)ccc1C` are within 1.5-fold of each other in IC50: 80.7 µM for the first, 88.5 µM for the second.

`O=C(C1CCCCC1)N1CCC(c2nc3c(nnn3Cc3ccccc3Cl)c(=O)[nH]2)CC1` and `O=C1NC(=O)C(CC(=O)N(c2ccccc2)C2(C(=O)NC3CCCC3)CCCCC2)N1` (configuration not stated) [1-[2-[2,5-bis(oxidanylidene)imidazolidin-4-yl]ethanoyl-phenyl-amino]-N-cyclopentyl-cyclohexane-1-carboxamide] cannot be ordered by IC50: > 10000 µM for the first, > 10000 µM for the second.

First: O=C(O)c1c(-c2ccccc2)c2oc3ccccc3c2[nH]c1=O
Second: Cc1cc(=O)[nH]c(NC(N)=Nc2cccc3ccccc23)n1
The IC50 of the first is lower: 17 µM for the first, > 10000 µM for the second.

Going from `CCc1cc2c(=O)c(-c3nc4ccccc4[nH]3)coc2cc1OC(=O)N1CCOCC1` to `COc1cccc(Cn2c(=S)[nH]c3ccc(N4CCOCC4)cc3c2=O)c1`, the IC50 falls from 189 µM to 36.2 µM (5.2-fold).

`Cn1cc(O)nc1NC(=O)C12CC3CC(CC(C3)C1)C2` and `CN(C)C(=O)N1CCC(C(=O)NCc2cccs2)CC1` [1-N,1-N-dimethyl-4-N-(thiophen-2-ylmethyl)piperidine-1,4-dicarboxamide] cannot be ordered by IC50: > 10000 µM for the first, > 10000 µM for the second.

First: CCOC(=O)c1c(C)[nH]c(C(=O)COC(=O)c2ccccc2NC(=O)c2ccco2)c1C
Second: COCCn1c(C)cc(C(=O)COc2nc3ccccc3nc2C)c1C [1-[1-(2-methoxyethyl)-2,5-dimethyl-3-pyrrolyl]-2-[(3-methyl-2-quinoxalinyl)oxy]ethanone]
The IC50 of the first is 48-fold lower: 62.8 µM for the first, 3000 µM for the second.

`CCN(CC)C(=O)c1sc2[nH]c(-c3ccccn3)nc(=O)c2c1C` and `CCN(CC)CCCN(Cc1cc2cc3c(cc2[nH]c1=O)OCO3)C(=O)Nc1ccccc1OC` [1-[3-(diethylamino)propyl]-3-(2-methoxyphenyl)-1-[(6-oxidanylidene-5H-[1,3]dioxolo[4,5-g]quinolin-7-yl)methyl]urea] are within 1.5-fold of each other in IC50: 30 µM for the first, 33.7 µM for the second.

`COc1cc(C2C3=C(CC(C)(C)CC3=O)N=C(C)C2C#N)cc(OC)c1O` (configuration not stated) and `COc1cc(-c2nc3cnccc3n2C)cc(OC)c1OC` [1-Methyl-2-(3,4,5-trimethoxy-phenyl)-1H-imidazo[4,5-c]pyridine] cannot be ordered by IC50: > 10000 µM for the first, > 10000 µM for the second.

`CCN(CC)CCOC(=O)c1ccc(NC=C2C(=O)CC(C)(C)CC2=O)cc1` and `Cc1ccc(C2C3=C(CC(C)(C)CC3=O)N(CCN3CCOCC3)C3=C2C(=O)CC(C)(C)C3)cc1` cannot be ordered by IC50: > 10000 µM for the first, > 10000 µM for the second.

Going from `O=S(=O)(Nc1ccc(C(F)(F)F)cc1)c1c[nH]cn1` to `FC(F)(F)c1cc(-c2ccco2)nc(-n2nnc3ccccc32)n1` [1-[4-(2-furanyl)-6-(trifluoromethyl)-2-pyrimidinyl]benzotriazole], the IC50 falls from > 10000 µM to 11.2 µM.

Compared with `CC1=C(C(=O)OCC2CCCO2)C(c2ccncc2)C2C(=O)CCCC2=N1` (configuration not stated), `O=C1C(Cl)=C(NCC2CCCO2)C(=O)N1Cc1ccccc1` (configuration not stated) [1-Benzyl-3-chloro-4-[(tetrahydro-furan-2-ylmethyl)-amino]-pyrrole-2,5-dione] is higher in IC50: 26.9 µM for the first, > 10000 µM for the second. The first is the more potent here.

Compared with `CC(C)/N=c1/cc2n(-c3ccc(Cl)cc3)c3ccccc3nc-2cc1Nc1ccc(Cl)cc1`, `COc1ccc(CCn2c(N)c(S(=O)(=O)c3cccs3)c3nc4ccccc4nc32)cc1OC` [1-[2-(3,4-dimethoxyphenyl)ethyl]-3-thiophen-2-ylsulfonyl-2-pyrrolo[3,2-b]quinoxalinamine] is 36-fold higher in IC50: 2.89 µM for the first, 105 µM for the second. The first is the more potent here.

`CN(C)C(=O)Nc1cnc2ccccc2c1` [1,1-dimethyl-3-(3-quinolinyl)urea] and `CC(=O)c1cccc(NC(=O)Nc2cccnc2)c1` [1-(3-acetylphenyl)-3-(3-pyridinyl)urea] cannot be ordered by IC50: > 10000 µM for the first, > 10000 µM for the second.

Going from `CC(C)c1ccc(-c2nc3c([nH]2)c(=O)n(C)c(=O)n3C)cc1` [1,3-dimethyl-8-(4-propan-2-ylphenyl)-7H-purine-2,6-dione] to `COc1ccc2c(c1)-c1ccccc1S(=O)(=O)N2C(C)=O` [1-(5,5-diketo-9-methoxy-benzo[c][1,2]benzothiazin-6-yl)ethanone], the IC50 rises from 21.8 µM to 80.2 µM (3.7-fold).

First: COc1cc2c(C#N)c(N3CCN(c4ccccc4OC)CC3)nc(N)c2c(N)n1 [1,8-diamino-6-methoxy-3-(4-(2-methoxyphenyl)piperazin-1-yl)-2,7-naphthyridine-4-carbonitrile]
Second: COc1cc2c(cc1OC)CN(C(=O)CSc1nnc3scc(-c4ccccc4)n13)CC2 [1-(6,7-dimethoxy-3,4-dihydro-1H-isoquinolin-2-yl)-2-[(5-phenyl-3-thiazolo[2,3-c][1,2,4]triazolyl)thio]ethanone]
The IC50 of the first is higher: > 10000 µM for the first, 584 µM for the second. The second is the more potent here.

First: Nc1c(S(=O)(=O)c2cccs2)c2nc3ccccc3nc2n1Cc1ccc2c(c1)OCO2 [1-(1,3-benzodioxol-5-ylmethyl)-3-thiophen-2-ylsulfonyl-2-pyrrolo[3,2-b]quinoxalinamine]
Second: Cc1ccccc1CN1CCN(S(=O)(=O)c2ccc(F)cc2)CC1 [1-(4-fluorophenyl)sulfonyl-4-(2-methylbenzyl)piperazine]
The IC50 of the first is lower: 31.9 µM for the first, > 10000 µM for the second. The first is the more potent here.

Going from `COc1ccc(-c2cc(C(F)(F)F)nc(SCCC(=O)N3CCN4CCCC4C3)n2)cc1` (configuration not stated) [1-(3,4,6,7,8,8a-hexahydro-1H-pyrrolo[1,2-a]pyrazin-2-yl)-3-[4-(4-methoxyphenyl)-6-(trifluoromethyl)pyrimidin-2-yl]sulfanyl-propan-1-one] to `Cc1cc(-c2ccccc2)nc(N2CCC(C(=O)NC(C)C)CC2)n1` [1-(4-Methyl-6-phenyl-pyrimidin-2-yl)-piperidine-4-carboxylic acid isopropylamide], the IC50 falls from 376 µM to 69.3 µM (5.4-fold). The second is the more potent here.

`CCOc1ccc(N2CC(C(=O)OC)CC2=O)cc1` (configuration not stated) [1-(4-ethoxyphenyl)-5-oxo-3-pyrrolidinecarboxylic acid methyl ester] and `Cc1c(NC(=O)C2CCN(S(=O)(=O)c3ccccc3)CC2)c(=O)n(-c2ccccc2)n1C` [1-(benzenesulfonyl)-N-(1,5-dimethyl-3-oxo-2-phenyl-4-pyrazolyl)-4-piperidinecarboxamide] cannot be ordered by IC50: > 10000 µM for the first, > 10000 µM for the second.

`Cc1nc2nc(C)c(CCC(=O)N3CCOCC3)c(C)n2n1` [1-(4-morpholinyl)-3-(2,5,7-trimethyl-[1,2,4]triazolo[1,5-a]pyrimidin-6-yl)-1-propanone] and `Cc1ccc(OCCn2c(C)c(C=Nn3cnnc3)c3ccccc32)cc1` [1-[2-methyl-1-[2-(4-methylphenoxy)ethyl]-3-indolyl]-N-(1,2,4-triazol-4-yl)methanimine] cannot be ordered by IC50: > 10000 µM for the first, > 10000 µM for the second.

Same assay, conditions: inactive by the depositor's call

For `CCn1nc(-c2ccccc2)nc2c(=O)n(C)c(=O)nc1-2` [1-Ethyl-6-methyl-3-phenyl-1H-pyrimido[5,4-e][1,2,4]triazine-5,7-dione], the IC50 was 20 µM.
